Laboratory results published in ChEMBL document CHEMBL1201862, “PubChem BioAssay data set” (2004).
The source made the active and inactive calls.

Columns and labels:
[1] = target: Neurotensin receptor type 1 (Homo sapiens, UniProt P30989); assay type: functional;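 note: Image-based confirmatory dose-response assay measuring agonist activity at NTR1; NTR1-expressing U2OS osteosarcoma cells imaged for beta-arrestin GFP spot formation; agonist potency where compounds increase beta-arrestin recruitment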
Melanocortin receptor 4 = Melanocortin receptor 4 (Homo sapiens, UniProt P32245); experiment: inhibitors of MC4R cAMP signaling – cell-based, TR-FRET, biased antagonists, dose response (AID 602298); assay type: functional;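 note: antagonist potency against agonist-stimulated cAMP production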
[2] = target: Heat shock protein HSP 90-alpha (Homo sapiens, UniProt P07900); assay type: functional, organism-based
[3] = loss of viability in HepG2 cells – cell-based, CellTiter-Glo, cherry-picked, cytotoxicity control for Shn3 inhibitor project, dose response (AID 624134); assay type: functional
[4] = non-specific 3'UTR reporter inhibition in Clone20-Shn3RL – cell-based, Renilla luciferase, cherry-picked, counter-screen for Shn3 inhibitor project, dose response (AID 624133); assay type: functional
[5] = cAMP pathway inhibition in counterscreen cell line – TR-FRET cAMP detection, counter-screen for MC4R biased antagonist project, dose response (AID 602305); assay type: functional, cell-based;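 note: U2OS cells stimulated with forskolin near its EC80 as the cAMP inducer; potency is for inhibition of forskolin-stimulated cAMP signaling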
Vero = experiment: cells; assay type: functional; details: Chlorocebus sabaeus
[6] = Fluorescence-based cell-based high throughput dose response assay for inhibitors of the interaction of nucleotide-binding oligomerization domain containing 2 (NOD2) and the receptor-interacting serine-threonine kinase 2 (RIPK2).; assay type: functional; details: Homo sapiens
[7] = microbe, parasite or virus in culture; assay type: functional; details: Mycobacterium tuberculosis
[8] = reduction of Shn3 3'UTR-driven luciferase in osteoblasts – cell-based, Clone20 osteoblasts, firefly luciferase, cherry-picked, dose response (AID 624132); assay type: functional;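 note: firefly luciferase luminescence from reporter carrying the Shn3 3'UTR in osteoblasts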
[9] = target: Glucose-6-phosphate 1-dehydrogenase (Homo sapiens, UniProt P11413); experiment: inhibition of Homo sapiens G6PD, dose series – biochemical, fluorescence, selectivity assay for P. falciparum G6PD inhibitor project, dose response (AID 504792); assay type: functional
Beta Lactamase = Beta Lactamase (Pseudomonas aeruginosa, UniProt Q932Y6); experiment: BLA reporter interference, concentration series – BLA reporter cells, FRET fluorescence, artefact control for NOD2-RIPK2 interaction inhibitor project, dose response (AID 651552); assay type: functional, cell-based
[10] = target: DNA (cytosine-5)-methyltransferase 1 (Homo sapiens, UniProt P26358); experiment: inhibition of DNA methylation by DNMT1 – biochemical, fluorescent molecular beacon, confirmation (AID 602386); assay type: functional
[11] = target: T1, High affinity choline transporter 1 (Homo sapiens, UniProt Q9GZV3); experiment: human choline transporter blockers, potency – cell-based, 5-point CRC, membrane potential dye, dose response (AID 504840); assay type: functional
T1 sequence (Q9GZV3 whole entry): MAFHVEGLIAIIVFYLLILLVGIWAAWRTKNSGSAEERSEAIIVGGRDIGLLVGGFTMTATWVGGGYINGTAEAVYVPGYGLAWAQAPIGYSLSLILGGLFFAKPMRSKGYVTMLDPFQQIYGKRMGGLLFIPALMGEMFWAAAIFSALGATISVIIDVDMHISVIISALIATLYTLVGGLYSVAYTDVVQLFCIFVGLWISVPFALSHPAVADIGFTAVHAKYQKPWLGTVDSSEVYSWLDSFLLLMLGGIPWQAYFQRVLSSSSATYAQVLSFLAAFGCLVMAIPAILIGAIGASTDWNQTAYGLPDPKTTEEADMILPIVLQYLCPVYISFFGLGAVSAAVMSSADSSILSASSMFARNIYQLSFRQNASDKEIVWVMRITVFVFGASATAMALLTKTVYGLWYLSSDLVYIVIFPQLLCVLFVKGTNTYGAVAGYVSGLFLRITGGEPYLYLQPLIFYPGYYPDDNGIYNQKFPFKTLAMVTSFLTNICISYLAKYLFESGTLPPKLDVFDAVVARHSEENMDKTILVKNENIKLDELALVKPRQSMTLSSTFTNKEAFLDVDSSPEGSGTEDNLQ

[12] = target: T1, High affinity choline transporter 1; experiment: human choline transporter blockers, potency – cell-based, 10-point CRC, membrane potential dye, dose response (AID 588401); assay type: functional;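 note: membrane potential dye fluorescence of choline-evoked depolarization via CHT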
[13] = viability loss in HEK293T cells – cell-based, cherry-picks, cytotoxicity control for HIV Vif inhibitor project, dose response (AID 652208); assay type: functional
Beta-lactamase [14] = target: T2, Beta-lactamase (Pseudomonas aeruginosa, UniProt Q79MP6); experiment: inhibition of IMP-1 beta-lactamase activity – biochemical, epi-absorbance, selectivity assay for VIM-2 inhibitor project, dose response (AID 1920)
Beta-lactamase [15] = target: T2, Beta-lactamase; experiment: […] counterscreen for selective VIM-2 inhibitors: dose response biochemical high throughput screening assay to identify inhibitors of IMP-1 metallo-beta-lactamase.
Beta-lactamase [16] = target: Beta-lactamase (Salmonella choleraesuis (strain SC-B67), UniProt Q5J463); experiment: Epi-absorbance-based counterscreen for selective VIM-2 inhibitors: dose response biochemical high throughput screening assay to identify inhibitors of TEM-1 serine-beta-lactamase.
[17] = target: T3, Small ubiquitin-related modifier 1 (Homo sapiens, UniProt P63165); experiment: SUMO1 protein-protein binding blockers, potency – biochemical, FRET, dose response (AID 624383); assay type: functional; details: read-out: IC50_Mean
[18] = target: T4, Small ubiquitin-related modifier 2 (Homo sapiens, UniProt P61956); experiment: disruption of SUMO2 interaction with SIM peptide – biochemical, fluorescence polarization, uHTS hits, selectivity assay for SUMO1 interaction inhibitor project, dose response (AID 624385); assay type: functional; details: read-out: IC50_Mean
[19] = target: T4, Small ubiquitin-related modifier 2; experiment: SUMO2 binding disruption by SUMO1 hits – biochemical, FRET, human SUMO2, uHTS hits, selectivity assay for SUMO1 interaction inhibitor project, dose response (AID 624384); assay type: functional; details: read-out: IC50_Mean
H9c2 = experiment: cells; assay type: functional, cell-based; details: Rattus norvegicus, H9c2, Myocardium;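 note: confirmatory concentration-response retest of ultra-high-throughput screening hits for modulation of myocardial damage; cell death induced by hydrogen peroxide oxidative stress; compound pretreatment for 60 min then peroxide exposure for 2 h; potency is for protecting the cells against peroxide damage rather than for killing them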
[20] = target: T3, Small ubiquitin-related modifier 1; experiment: SUMO1 protein interaction blockers, potency – biochemical, fluorescence polarization, uHTS hits, dose response (AID 624382); assay type: functional; details: read-out: IC50_Mean
[21] = target: Long-chain-fatty-acid--AMP ligase FadD28 (Mycobacterium tuberculosis, UniProt P9WQ59); experiment: Fluorescence polarization aasay to screen for inhibitors that compete for the binding of FadD28 to a bisubstrate Measured in Biochemical System Using Plate Reader - 2147-01_Inhibitor_Dose_CherryPick_Activity.; assay type: functional, Mycobacterium tuberculosis H37Rv
[22] = target: Arf-GAP with SH3 domain, ANK repeat and PH domain-containing protein 1 (Homo sapiens, UniProt Q9ULH1); assay type: functional;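 note: biochemical fluorescence polarization dose–response screen measuring inhibition of ASAP1; ASAP1 GAP domain stimulating GTP hydrolysis by truncated human ARF1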
[23] = target: ADP-ribosylation factor GTPase-activating protein 1 (Rattus norvegicus, UniProt Q62848); experiment: Fluorescence polarization-based biochemical high throughput dose response screening assay to identify inhibitors of ADP-ribosylation factor GTPase activating protein 1 (ARFGAP1).; assay type: functional
[24] = target: T5, DNA repair protein RAD52 homolog (Homo sapiens, UniProt P43351); assay type: functional, biochemical
T5 sequence (P43351 whole entry): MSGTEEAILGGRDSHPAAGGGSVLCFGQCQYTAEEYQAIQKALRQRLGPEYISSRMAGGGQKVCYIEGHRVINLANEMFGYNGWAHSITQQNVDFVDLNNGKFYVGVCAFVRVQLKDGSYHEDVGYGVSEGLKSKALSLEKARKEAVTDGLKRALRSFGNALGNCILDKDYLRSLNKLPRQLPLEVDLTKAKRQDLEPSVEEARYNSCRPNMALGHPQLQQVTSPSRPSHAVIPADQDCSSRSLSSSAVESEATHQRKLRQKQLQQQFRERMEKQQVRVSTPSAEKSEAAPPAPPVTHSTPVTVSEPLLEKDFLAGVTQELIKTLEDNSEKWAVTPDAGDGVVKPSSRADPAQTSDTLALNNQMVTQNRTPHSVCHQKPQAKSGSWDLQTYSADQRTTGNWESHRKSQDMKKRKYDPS

[25] = target: Ras and Rab interactor 1/Tyrosine-protein kinase ABL1 (Homo sapiens, UniProt P00519+Q13671); assay type: functional;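 note: biochemical TR-FRET dose-response test measuring inhibition of binding between Rin1 and Abl proteins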
[26] = viability loss in HeLa cells – cytotoxicity control for MgcRacGAP inhibitor project, dose response (AID 624300); assay type: functional
[27] = target: T6, Rac GTPase-activating protein 1 (Homo sapiens, UniProt Q9H0H5); experiment: blockers of MgcRacGAP-driven Rac1 GTP hydrolysis – biochemical, ADP Hunter fluorescence, primary and confirmatory, confirmation (AID 624330); assay type: functional
T6 sequence (Q9H0H5 whole entry): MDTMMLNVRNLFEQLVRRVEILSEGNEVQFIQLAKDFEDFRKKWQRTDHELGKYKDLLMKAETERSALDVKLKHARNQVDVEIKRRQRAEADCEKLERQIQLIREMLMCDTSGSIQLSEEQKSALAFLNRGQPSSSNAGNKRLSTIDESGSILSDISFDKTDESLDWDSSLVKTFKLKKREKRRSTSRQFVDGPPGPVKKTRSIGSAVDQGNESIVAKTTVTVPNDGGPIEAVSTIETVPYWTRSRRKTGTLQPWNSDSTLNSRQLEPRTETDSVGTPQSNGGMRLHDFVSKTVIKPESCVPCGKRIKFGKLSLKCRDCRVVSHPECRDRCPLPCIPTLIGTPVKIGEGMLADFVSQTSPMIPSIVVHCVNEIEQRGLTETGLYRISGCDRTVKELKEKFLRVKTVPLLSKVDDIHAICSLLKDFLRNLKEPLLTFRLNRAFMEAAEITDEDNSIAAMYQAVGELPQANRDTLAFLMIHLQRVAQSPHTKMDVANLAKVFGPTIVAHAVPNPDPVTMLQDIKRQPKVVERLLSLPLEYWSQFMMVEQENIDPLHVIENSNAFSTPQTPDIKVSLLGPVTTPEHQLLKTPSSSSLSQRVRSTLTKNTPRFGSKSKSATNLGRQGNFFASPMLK

Protein Wnt-3a = Protein Wnt-3a (Mus musculus, UniProt P27467); experiment: antagonism of Wnt3a pathway luciferase reporter – Wnt-LIGHT cells, luminescence, selectivity assay for Gli-SUFU antagonist project, dose response (AID 651570); assay type: functional; details: read-out: IC50_Mean;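 note: Wnt-LIGHT reporter cells stimulated with conditioned medium from Wnt3a-producing cells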
[28] = target: T7, Low molecular weight phosphotyrosine protein phosphatase (Homo sapiens, UniProt P24666); assay type: functional; details: read-out: IC50_Mean
T7 sequence (P24666 whole entry): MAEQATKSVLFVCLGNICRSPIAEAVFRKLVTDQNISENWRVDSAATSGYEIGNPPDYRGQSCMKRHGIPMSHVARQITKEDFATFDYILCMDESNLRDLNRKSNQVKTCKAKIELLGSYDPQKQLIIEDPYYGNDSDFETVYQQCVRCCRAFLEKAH

[29] = target: T7, Low molecular weight phosphotyrosine protein phosphatase; assay type: functional; details: read-out: IC50_Mean; remark: listed apart in the source
[30] = target: T8, Ubiquitin-conjugating enzyme E2 N (Homo sapiens, UniProt P61088); assay type: functional;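 note: Dose-response confirmation in a TR-FRET assay detecting UBC13-driven polyubiquitin chain formation, inhibition measured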
T8 sequence (P61088 whole entry): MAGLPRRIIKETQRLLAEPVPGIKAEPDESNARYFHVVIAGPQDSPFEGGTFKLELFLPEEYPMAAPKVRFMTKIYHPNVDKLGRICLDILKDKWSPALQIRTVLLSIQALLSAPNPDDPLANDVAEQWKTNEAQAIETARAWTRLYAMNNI

Interleukin-8 = Interleukin-8 (Homo sapiens, UniProt P10145); experiment: Dose Response confirmation of uHTS small molecule hits for cystic fibrosis induced NFkb Inhibitors in a PAF-induced IL8 counterscreen.; assay type: functional; details: read-out: IC50_Mean
Sequence of Interleukin-8 (P10145 whole entry): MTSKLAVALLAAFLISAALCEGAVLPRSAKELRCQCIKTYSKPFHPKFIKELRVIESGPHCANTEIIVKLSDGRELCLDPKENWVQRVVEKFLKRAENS

Sequence of Melanocortin receptor 4 (P32245 whole entry): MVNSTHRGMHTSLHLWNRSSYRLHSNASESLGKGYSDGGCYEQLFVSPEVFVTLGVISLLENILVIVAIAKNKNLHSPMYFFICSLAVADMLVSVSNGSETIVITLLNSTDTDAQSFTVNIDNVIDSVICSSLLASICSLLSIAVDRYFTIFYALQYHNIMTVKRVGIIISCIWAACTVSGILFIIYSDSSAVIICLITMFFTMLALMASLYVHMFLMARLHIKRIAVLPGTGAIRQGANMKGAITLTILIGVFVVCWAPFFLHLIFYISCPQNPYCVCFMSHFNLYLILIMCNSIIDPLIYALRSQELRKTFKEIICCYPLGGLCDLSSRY
T4 sequence (P61956 whole entry): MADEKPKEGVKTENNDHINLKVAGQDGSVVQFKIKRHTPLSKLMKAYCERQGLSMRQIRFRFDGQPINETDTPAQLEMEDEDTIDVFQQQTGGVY
T3 sequence (P63165 whole entry): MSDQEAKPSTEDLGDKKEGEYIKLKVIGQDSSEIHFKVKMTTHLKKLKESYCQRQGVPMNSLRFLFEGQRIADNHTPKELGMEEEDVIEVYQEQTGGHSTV
T2 sequence (Q79MP6 whole entry): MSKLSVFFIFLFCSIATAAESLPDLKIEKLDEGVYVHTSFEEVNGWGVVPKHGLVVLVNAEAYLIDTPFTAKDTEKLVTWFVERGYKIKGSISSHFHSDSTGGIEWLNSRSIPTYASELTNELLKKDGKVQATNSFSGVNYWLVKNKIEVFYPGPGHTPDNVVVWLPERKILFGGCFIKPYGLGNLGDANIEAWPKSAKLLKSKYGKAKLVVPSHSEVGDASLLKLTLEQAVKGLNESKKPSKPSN
Sequence of Protein Wnt-3a (P27467 whole entry): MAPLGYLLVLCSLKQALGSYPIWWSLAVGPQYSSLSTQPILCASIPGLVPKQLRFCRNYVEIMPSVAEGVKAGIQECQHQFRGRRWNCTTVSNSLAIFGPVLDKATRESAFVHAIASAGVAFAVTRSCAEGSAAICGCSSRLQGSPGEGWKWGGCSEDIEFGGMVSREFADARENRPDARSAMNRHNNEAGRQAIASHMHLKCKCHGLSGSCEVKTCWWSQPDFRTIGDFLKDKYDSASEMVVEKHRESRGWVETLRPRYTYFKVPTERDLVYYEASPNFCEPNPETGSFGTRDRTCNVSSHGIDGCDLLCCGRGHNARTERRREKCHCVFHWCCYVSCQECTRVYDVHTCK
Sequence of Neurotensin receptor type 1 (P30989 whole entry): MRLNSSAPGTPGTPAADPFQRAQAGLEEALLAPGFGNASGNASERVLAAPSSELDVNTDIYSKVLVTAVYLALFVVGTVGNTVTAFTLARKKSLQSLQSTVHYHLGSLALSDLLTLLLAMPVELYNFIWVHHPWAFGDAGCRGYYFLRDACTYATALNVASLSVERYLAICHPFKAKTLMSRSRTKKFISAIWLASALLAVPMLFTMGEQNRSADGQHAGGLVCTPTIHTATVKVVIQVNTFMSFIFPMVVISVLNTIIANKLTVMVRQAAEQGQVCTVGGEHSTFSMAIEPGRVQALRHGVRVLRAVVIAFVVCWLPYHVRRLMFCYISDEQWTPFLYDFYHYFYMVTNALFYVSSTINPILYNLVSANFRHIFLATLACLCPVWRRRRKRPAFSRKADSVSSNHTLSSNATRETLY
Sequence of Arf-GAP with SH3 domain, ANK repeat and PH domain-containing protein 1 (Q9ULH1 whole entry, the tested form may be a part): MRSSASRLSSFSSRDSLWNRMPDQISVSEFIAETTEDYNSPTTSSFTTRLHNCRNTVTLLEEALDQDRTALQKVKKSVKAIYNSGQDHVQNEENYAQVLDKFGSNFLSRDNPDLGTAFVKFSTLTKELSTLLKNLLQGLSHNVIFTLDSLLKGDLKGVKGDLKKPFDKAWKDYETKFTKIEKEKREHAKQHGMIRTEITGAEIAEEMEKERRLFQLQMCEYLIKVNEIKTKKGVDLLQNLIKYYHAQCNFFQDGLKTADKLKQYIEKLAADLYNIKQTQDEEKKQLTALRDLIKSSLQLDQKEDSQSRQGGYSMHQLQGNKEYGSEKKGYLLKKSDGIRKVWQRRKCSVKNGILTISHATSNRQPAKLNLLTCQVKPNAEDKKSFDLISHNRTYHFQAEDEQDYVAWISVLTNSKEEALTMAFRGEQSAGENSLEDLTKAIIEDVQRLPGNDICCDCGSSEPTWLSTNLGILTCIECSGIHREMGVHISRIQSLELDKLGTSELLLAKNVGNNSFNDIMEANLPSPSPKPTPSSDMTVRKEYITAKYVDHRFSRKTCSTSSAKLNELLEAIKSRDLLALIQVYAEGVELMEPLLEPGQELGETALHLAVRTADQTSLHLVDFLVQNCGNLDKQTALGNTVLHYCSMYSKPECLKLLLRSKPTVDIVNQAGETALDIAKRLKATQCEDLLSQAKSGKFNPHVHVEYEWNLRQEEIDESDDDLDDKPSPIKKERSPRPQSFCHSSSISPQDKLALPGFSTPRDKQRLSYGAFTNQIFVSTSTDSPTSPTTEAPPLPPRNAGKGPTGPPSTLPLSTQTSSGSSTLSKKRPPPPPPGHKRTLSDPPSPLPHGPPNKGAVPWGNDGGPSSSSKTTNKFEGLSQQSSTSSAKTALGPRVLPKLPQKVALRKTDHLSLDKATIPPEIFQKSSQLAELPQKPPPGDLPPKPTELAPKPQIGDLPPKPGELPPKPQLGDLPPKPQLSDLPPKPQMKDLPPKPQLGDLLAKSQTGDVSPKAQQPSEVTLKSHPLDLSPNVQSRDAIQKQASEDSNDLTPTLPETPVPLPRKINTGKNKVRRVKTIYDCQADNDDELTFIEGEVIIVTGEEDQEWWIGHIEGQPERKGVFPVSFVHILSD
Sequence of Beta Lactamase (Q932Y6 whole entry): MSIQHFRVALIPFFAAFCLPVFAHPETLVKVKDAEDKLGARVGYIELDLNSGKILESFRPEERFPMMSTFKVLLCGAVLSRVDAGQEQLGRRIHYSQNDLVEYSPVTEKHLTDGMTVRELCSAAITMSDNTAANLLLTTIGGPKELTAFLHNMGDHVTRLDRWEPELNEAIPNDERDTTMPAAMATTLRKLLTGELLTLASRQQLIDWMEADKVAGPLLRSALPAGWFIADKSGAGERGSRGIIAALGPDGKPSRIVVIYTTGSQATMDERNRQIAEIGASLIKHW
Sequence of DNA (cytosine-5)-methyltransferase 1 (P26358 whole entry): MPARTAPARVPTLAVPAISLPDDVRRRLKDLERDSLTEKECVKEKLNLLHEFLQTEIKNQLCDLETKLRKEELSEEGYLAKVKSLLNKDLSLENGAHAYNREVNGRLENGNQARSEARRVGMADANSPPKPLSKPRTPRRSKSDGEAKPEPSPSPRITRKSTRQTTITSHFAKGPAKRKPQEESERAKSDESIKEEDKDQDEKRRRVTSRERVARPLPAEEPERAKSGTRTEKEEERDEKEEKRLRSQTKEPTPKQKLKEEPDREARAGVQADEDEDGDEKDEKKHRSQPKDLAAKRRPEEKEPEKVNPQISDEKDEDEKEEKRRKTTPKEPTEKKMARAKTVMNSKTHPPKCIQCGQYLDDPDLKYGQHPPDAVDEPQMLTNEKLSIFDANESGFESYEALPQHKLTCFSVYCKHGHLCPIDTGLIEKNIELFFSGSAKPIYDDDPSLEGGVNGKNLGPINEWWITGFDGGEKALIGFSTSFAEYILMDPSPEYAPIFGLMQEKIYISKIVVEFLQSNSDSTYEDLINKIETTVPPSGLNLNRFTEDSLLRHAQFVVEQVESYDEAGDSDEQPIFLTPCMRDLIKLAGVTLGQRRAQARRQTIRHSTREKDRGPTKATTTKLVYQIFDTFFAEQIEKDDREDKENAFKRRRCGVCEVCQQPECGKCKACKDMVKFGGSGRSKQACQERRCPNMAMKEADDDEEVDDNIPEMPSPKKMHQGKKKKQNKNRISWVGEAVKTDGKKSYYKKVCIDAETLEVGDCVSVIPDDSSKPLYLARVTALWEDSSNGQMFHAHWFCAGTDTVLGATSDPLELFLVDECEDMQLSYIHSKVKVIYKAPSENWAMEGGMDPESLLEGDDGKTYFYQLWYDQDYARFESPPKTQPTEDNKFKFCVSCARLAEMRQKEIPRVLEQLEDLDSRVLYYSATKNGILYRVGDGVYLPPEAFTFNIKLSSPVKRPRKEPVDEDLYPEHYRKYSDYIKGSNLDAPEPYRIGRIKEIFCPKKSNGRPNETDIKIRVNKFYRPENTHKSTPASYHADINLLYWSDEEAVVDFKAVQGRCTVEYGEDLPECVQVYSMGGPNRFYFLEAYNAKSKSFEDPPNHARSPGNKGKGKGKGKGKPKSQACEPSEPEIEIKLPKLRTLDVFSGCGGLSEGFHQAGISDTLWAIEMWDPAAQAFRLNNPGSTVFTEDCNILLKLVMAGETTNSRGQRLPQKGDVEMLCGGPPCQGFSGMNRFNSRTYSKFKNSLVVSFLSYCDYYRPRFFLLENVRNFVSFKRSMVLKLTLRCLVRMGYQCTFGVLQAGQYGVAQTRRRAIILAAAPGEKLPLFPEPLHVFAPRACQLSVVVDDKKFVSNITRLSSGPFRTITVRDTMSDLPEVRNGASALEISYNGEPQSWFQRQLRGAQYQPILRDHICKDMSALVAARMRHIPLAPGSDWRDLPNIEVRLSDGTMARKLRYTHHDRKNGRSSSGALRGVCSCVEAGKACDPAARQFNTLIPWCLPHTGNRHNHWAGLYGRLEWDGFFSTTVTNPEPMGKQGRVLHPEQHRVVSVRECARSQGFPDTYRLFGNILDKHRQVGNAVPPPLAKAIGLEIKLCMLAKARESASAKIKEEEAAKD
Sequence of Beta-lactamase (Salmonella choleraesuis (strain SC-B67), UniProt Q5J463) (Q5J463 whole entry): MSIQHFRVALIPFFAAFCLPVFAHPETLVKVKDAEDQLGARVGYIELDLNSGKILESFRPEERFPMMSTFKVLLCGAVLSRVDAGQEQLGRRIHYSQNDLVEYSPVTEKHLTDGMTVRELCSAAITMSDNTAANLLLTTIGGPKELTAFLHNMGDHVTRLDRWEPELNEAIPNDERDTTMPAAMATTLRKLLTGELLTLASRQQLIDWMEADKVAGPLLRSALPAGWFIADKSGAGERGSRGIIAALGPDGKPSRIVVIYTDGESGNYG

O=C(c1ccc(Br)cc1)C(CN1CCOCC1)c1ccccc1 (stereo unspecified)
EC50 [1]: 33 µM (inactive)
IC50 (Melanocortin receptor 4): > 64.6 µM (inactive)
AC50 [2]: 2.85 µM (active)
AC50 [3]: 21.6 µM (active)
AC50 [4]: 10.6 µM (active)
IC50 [5]: > 64.6 µM (inactive)
CC50 (Vero): > 25 µM (active)
IC50 [6]: 7.78 µM (active)
CC50 [7]: > 40 µM (active)
AC50 [8]: 9.4 µM (active)

Clc1nssc1=Nc1nncs1
IC50 [9]: 42.3 µM (inactive)
IC50 (Beta Lactamase): 49.8 µM (inactive)
IC50 [6]: 6.62 µM (active)

CCCCCCCCc1nnc(NC(=O)c2ccco2)s1
IC50 [10]: 42.4 µM (active)

Cc1ccc(NC(=O)CN2C(=O)NC3(CCc4ccccc43)C2=O)cc1Cl (stereo unspecified)
IC50 [11]: 9.3 µM (active)
IC50 [12]: 11.2 µM (active)

CC(=O)Nc1ccc(NC(=O)COc2ccccc2C(=O)Nc2cccc(Cl)c2Cl)cc1
AC50 [13]: 8.25 µM (active)

COc1cc(OC)cc(Oc2ccc(S(=O)(=O)N3CCCCC3)cc2[N+](=O)[O-])c1
IC50 (Melanocortin receptor 4): > 64.6 µM (inactive)
IC50 [5]: > 64.6 µM (inactive)

COc1cc(NS(=O)(=O)c2ccc(NC(=O)c3ccc(Cl)cc3Cl)cc2)ncn1
IC50 [11]: 4.47 µM (active)
IC50 [12]: 9.46 µM (active)

Cc1ccccc1C(=O)Nc1nnc(SCC(=O)NCc2ccco2)s1
IC50 (Beta-lactamase [14]): > 59.6 µM (inactive)
IC50 (Beta-lactamase [15]): > 59.6 µM (inactive)
IC50 (Beta-lactamase [16]): > 59.6 µM (inactive)

Nc1cc2nc(O)c3ccccc3c2cc1[N+](=O)[O-]
IC50 [17]: 51.8 µM (inactive)
IC50 [18]: 45.7 µM (inactive)
IC50 [19]: > 66 µM (inactive)
IC50 (H9c2): > 79 µM (inactive)
IC50 [20]: 1.02 µM (active)

CCn1ncc(Br)c1C(=O)Nc1ccc(OC(F)(F)F)cc1
AC50 [21]: 52 µM (active)

CC(=O)c1cccc(NC(=O)c2cccc3c(-c4cccnc4)coc23)c1
IC50 [22]: 79.4 µM (inactive)
IC50 [23]: 129 µM (inactive)

COc1cccc2c3cccc(OC)c3c3[nH]cnc3c12
AC50 [24]: 0.513 µM (active)
IC50 [25]: 15.8 µM (inactive)
CC50 [26]: 43.9 µM (active)
IC50 [27]: 82.8 µM (active)

C/C(=N\NC(=O)C(=O)Nc1ccc(C)c(Cl)c1)c1ccncc1
IC50 (Protein Wnt-3a): 0.909 µM (active)

COCCNc1nc(NCc2ccc(C)cc2C)c2sccc2n1
IC50 [28]: 13.8 µM (active)
IC50 [29]: 15.6 µM (active)

CN(C)c1ccnc2sc3c(=O)n(Cc4ccccc4)cnc3c12
IC50 [30]: > 20 µM (inactive)
IC50 (Interleukin-8): 12.2 µM (inactive)
